Measurements as given in US20240116845A1, “INDENE COMPOUNDS, PHARMACEUTICAL COMPOSITIONS THEREOF, AND THEIR THERAPEUTIC APPLICATIONS” (NucMito Pharmaceuticals Co., Ltd., priority 2021, published 2024).

Key:
Format in all cases: cell-based
[1] = tested on: A431 (epidermoid carcinoma); test: Antiproliferative activity, CCK-8 cell viability; conditions: Homo sapiens, A-431, 72 h, read-out: Inhibition of Cancerous Cells, A431; for inhibition at 3.3 µM: compound concentration of 3.3 μM; for inhibition at 10 µM: compound concentration of 10 μM; for inhibition at 30 µM: compound concentration of 30 μM
Summary of the method: (§1)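 Viability relative to DMSO controls came from CCK-8 absorbance at 450 nm after 72 h exposure at 37°C. Compound concentrations were 3.3, 10 or 30 μM, in DMEM plus 10% FBS. Results are categorised by inhibition level: at least 50%, 30 to under 50%, or under 30%.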

[2] = tested on: HeLa (cervical cancer); test: Antiproliferative activity, CCK-8 cell viability; conditions: Homo sapiens, 72 h, read-out: Inhibition of Cancerous Cells, HELA; for inhibition at 3.3 µM: compound concentration of 3.3 μM; for inhibition at 10 µM: compound concentration of 10 μM; for inhibition at 30 µM: compound concentration of 30 μM
[3] = tested on: SW480 (colon cancer); test: Antiproliferative activity, CCK-8 cell viability; conditions: Homo sapiens, 72 h, read-out: Inhibition of Cancerous Cells, SW480; for inhibition at 3.3 µM: compound concentration of 3.3 μM; for inhibition at 10 µM: compound concentration of 10 μM; for inhibition at 30 µM: compound concentration of 30 μM
Summary of the method: as §1

[4] = tested on: HepG2 (liver cancer); test: Antiproliferative activity, CCK-8 cell viability; conditions: Homo sapiens, 72 h, read-out: Inhibition of Cancerous Cells, HepG2; for inhibition at 3.3 µM: compound concentration of 3.3 μM; for inhibition at 10 µM: compound concentration of 10 μM; for inhibition at 30 µM: compound concentration of 30 μM
Summary of the method: as §1

[5] = tested on: MDA-MB-231 (breast cancer); test: Antiproliferative activity, CCK-8 cell viability; conditions: Homo sapiens, 72 h, read-out: Inhibition of Cancerous Cells, MDA-MB-231; for inhibition at 3.3 µM: compound concentration of 3.3 μM; for inhibition at 10 µM: compound concentration of 10 μM; for inhibition at 30 µM: compound concentration of 30 μM
Summary of the method: as §1

[6] = tested on: A549 (lung adenocarcinoma); test: Antiproliferative activity, CCK-8 cell viability; conditions: Homo sapiens, 72 h, read-out: Inhibition of Cancerous Cells, A549; for inhibition at 3.3 µM: compound concentration of 3.3 μM; for inhibition at 10 µM: compound concentration of 10 μM; for inhibition at 30 µM: compound concentration of 30 μM
[7] = tested on: B16F10 (malignant melanoma); test: Antiproliferative activity, CCK-8 cell viability; conditions: Mus musculus, B16-F10, 72 h, read-out: Inhibition of Cancerous Cells, B16F10; for inhibition at 3.3 µM: compound concentration of 3.3 μM; for inhibition at 10 µM: compound concentration of 10 μM; for inhibition at 30 µM: compound concentration of 30 μM
Summary of the method: as §1

[8] = tested on: alpha-smooth muscle actin (α-SMA); test: Inhibition of TGF-β induced expression of alpha-smooth muscle actin in CFSC cells (western blot); conditions: compound at 10 μM, TGF-β (10 ng/mL), 24 hours
Summary of the method: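 Read-out is percent decrease in α-SMA western-blot band intensity, β-actin also probed, relative to TGF-β-only cells. CFSC cells were co-treated for 24 h at 37 °C with 10 ng/mL TGF-β and 10 μM compound in serum-free DMEM.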

Compound: CC1=C(CC(=O)O)c2cc(F)ccc2/C1=C\c1ccccc1Oc1ccccc1 [Compound D19, 2-[(1Z)-5-Fluoro-1-(2-(phenoxy)benzylidene)-2-methyl-1H-inden-3-yl]-acetic acid]
- inhibition at 3.3 µM [1]: ≥ 50%
- inhibition at 10 µM [1]: ≥ 50%
- inhibition at 30 µM [1]: ≥ 50%
- inhibition at 3.3 µM [2]: 30 to 50%
- inhibition at 10 µM [2]: ≥ 50%
- inhibition at 30 µM [2]: ≥ 50%
- inhibition at 3.3 µM [3]: ≥ 50%
- inhibition at 10 µM [3]: ≥ 50%
- inhibition at 30 µM [3]: ≥ 50%
- inhibition at 3.3 µM [4]: ≥ 50%
- inhibition at 10 µM [4]: ≥ 50%
- inhibition at 30 µM [4]: ≥ 50%
- inhibition at 3.3 µM [5]: < 30%
- inhibition at 10 µM [5]: < 30%
- inhibition at 30 µM [5]: ≥ 50%
- inhibition at 3.3 µM [6]: 30 to 50%
- inhibition at 10 µM [6]: ≥ 50%
- inhibition at 30 µM [6]: ≥ 50%
- inhibition at 3.3 µM [7]: < 30%
- inhibition at 10 µM [7]: 30 to 50%
- inhibition at 30 µM [7]: ≥ 50%
- inhibition at 10 µM [8]: < 30%

Compound: CC1=C(CC(=O)O)c2cc(F)ccc2/C1=C\c1ccc(COc2ccc(F)cc2F)cc1 [Compound A15, 2-[(1Z)-1-({4-[(2,4-Difluorophenoxy)methyl]phenyl}methylidene)-5-fluoro-2-methyl-1H-inden-3-yl]acetic acid]
- inhibition at 3.3 µM [1]: < 30%
- inhibition at 10 µM [1]: < 30%
- inhibition at 30 µM [1]: ≥ 50%
- inhibition at 3.3 µM [2]: 30 to 50%
- inhibition at 10 µM [2]: ≥ 50%
- inhibition at 30 µM [2]: ≥ 50%
- inhibition at 3.3 µM [3]: ≥ 50%
- inhibition at 10 µM [3]: ≥ 50%
- inhibition at 30 µM [3]: ≥ 50%
- inhibition at 3.3 µM [4]: ≥ 50%
- inhibition at 10 µM [4]: ≥ 50%
- inhibition at 30 µM [4]: ≥ 50%
- inhibition at 3.3 µM [5]: ≥ 50%
- inhibition at 10 µM [5]: ≥ 50%
- inhibition at 30 µM [5]: ≥ 50%
- inhibition at 3.3 µM [6]: 30 to 50%
- inhibition at 10 µM [6]: ≥ 50%
- inhibition at 30 µM [6]: ≥ 50%
- inhibition at 3.3 µM [7]: ≥ 50%
- inhibition at 10 µM [7]: ≥ 50%
- inhibition at 30 µM [7]: ≥ 50%
- inhibition at 10 µM [8]: ≥ 80%

Compound: CC1=C(CC(=O)O)c2cc(F)ccc2/C1=C\c1ccc(CCc2ccccc2)cc1 [Compound A8, 2-[(1Z)-5-Fluoro-2-methyl-1-{[4-(2-phenylethyl)phenyl]methylidene}-1H-inden-3-yl]acetic acid]
- inhibition at 3.3 µM [1]: 30 to 50%
- inhibition at 10 µM [1]: ≥ 50%
- inhibition at 30 µM [1]: ≥ 50%
- inhibition at 3.3 µM [2]: < 30%
- inhibition at 10 µM [2]: < 30%
- inhibition at 30 µM [2]: ≥ 50%
- inhibition at 3.3 µM [3]: 30 to 50%
- inhibition at 10 µM [3]: ≥ 50%
- inhibition at 30 µM [3]: ≥ 50%
- inhibition at 3.3 µM [4]: 30 to 50%
- inhibition at 10 µM [4]: 30 to 50%
- inhibition at 30 µM [4]: ≥ 50%
- inhibition at 3.3 µM [5]: 30 to 50%
- inhibition at 10 µM [5]: ≥ 50%
- inhibition at 30 µM [5]: ≥ 50%
- inhibition at 3.3 µM [6]: < 30%
- inhibition at 10 µM [6]: ≥ 50%
- inhibition at 30 µM [6]: ≥ 50%
- inhibition at 3.3 µM [7]: < 30%
- inhibition at 10 µM [7]: < 30%
- inhibition at 30 µM [7]: ≥ 50%
- inhibition at 10 µM [8]: ≥ 80%

Compound: CC1=C(CC(=O)O)c2cc(F)ccc2/C1=C\c1cccc(COc2ccc(F)cc2F)c1 [Compound A19, 2-[(1Z)-1-({3-[(2,4-Difluorophenoxy)methyl]phenyl}methylidene)-5-fluoro-2-methyl-1H-inden-3-yl]acetic acid]
- inhibition at 3.3 µM [1]: ≥ 50%
- inhibition at 10 µM [1]: ≥ 50%
- inhibition at 30 µM [1]: ≥ 50%
- inhibition at 3.3 µM [2]: 30 to 50%
- inhibition at 10 µM [2]: ≥ 50%
- inhibition at 30 µM [2]: ≥ 50%
- inhibition at 3.3 µM [3]: ≥ 50%
- inhibition at 10 µM [3]: ≥ 50%
- inhibition at 30 µM [3]: ≥ 50%
- inhibition at 3.3 µM [4]: 30 to 50%
- inhibition at 10 µM [4]: ≥ 50%
- inhibition at 30 µM [4]: ≥ 50%
- inhibition at 3.3 µM [5]: ≥ 50%
- inhibition at 10 µM [5]: ≥ 50%
- inhibition at 30 µM [5]: ≥ 50%
- inhibition at 3.3 µM [6]: < 30%
- inhibition at 10 µM [6]: 30 to 50%
- inhibition at 30 µM [6]: ≥ 50%
- inhibition at 3.3 µM [7]: ≥ 50%
- inhibition at 10 µM [7]: ≥ 50%
- inhibition at 30 µM [7]: ≥ 50%
- inhibition at 10 µM [8]: ≥ 80%
